The source made the active and inactive calls. The calls are words filed in the database; no cut-off is given here.
Assays:
[1] = target: T1, Dual specificity mitogen-activated protein kinase kinase 4 (Homo sapiens) (UniProt P45985); assay: Inhibition of MAP2K4 K2 labeling site harbouring DIKPSNILLDR in human Huh-7 cells at 1 uM by KiNativ Profiling analysis relative to control; type: cell-based
T1 sequence (whole entry): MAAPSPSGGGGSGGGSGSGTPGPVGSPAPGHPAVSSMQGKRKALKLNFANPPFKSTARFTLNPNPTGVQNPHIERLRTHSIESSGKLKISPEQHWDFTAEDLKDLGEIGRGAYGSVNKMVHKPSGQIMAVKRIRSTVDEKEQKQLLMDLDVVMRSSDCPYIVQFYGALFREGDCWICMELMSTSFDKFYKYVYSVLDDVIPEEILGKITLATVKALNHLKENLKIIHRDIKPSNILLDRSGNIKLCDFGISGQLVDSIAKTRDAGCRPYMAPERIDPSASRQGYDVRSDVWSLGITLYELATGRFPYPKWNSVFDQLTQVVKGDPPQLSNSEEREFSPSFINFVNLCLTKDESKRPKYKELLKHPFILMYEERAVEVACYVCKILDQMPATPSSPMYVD

[2] = target: Mitogen-activated protein kinase kinase kinase 4 (Homo sapiens) (UniProt Q9Y6R4); assay: Inhibition of MAP3K4 K2 labeling site in human Huh-7 cells at 1 uM by KiNativ Profiling analysis relative to control; type: cell-based
[3] = target: T2, Phosphatidylinositol 4,5-bisphosphate 3-kinase catalytic subunit delta isoform (Homo sapiens) (UniProt O00329); assay: Inhibition of PIK3CD (unknown origin) at 10 uM by Ambit Kinomescan binding assay
T2 sequence (whole entry): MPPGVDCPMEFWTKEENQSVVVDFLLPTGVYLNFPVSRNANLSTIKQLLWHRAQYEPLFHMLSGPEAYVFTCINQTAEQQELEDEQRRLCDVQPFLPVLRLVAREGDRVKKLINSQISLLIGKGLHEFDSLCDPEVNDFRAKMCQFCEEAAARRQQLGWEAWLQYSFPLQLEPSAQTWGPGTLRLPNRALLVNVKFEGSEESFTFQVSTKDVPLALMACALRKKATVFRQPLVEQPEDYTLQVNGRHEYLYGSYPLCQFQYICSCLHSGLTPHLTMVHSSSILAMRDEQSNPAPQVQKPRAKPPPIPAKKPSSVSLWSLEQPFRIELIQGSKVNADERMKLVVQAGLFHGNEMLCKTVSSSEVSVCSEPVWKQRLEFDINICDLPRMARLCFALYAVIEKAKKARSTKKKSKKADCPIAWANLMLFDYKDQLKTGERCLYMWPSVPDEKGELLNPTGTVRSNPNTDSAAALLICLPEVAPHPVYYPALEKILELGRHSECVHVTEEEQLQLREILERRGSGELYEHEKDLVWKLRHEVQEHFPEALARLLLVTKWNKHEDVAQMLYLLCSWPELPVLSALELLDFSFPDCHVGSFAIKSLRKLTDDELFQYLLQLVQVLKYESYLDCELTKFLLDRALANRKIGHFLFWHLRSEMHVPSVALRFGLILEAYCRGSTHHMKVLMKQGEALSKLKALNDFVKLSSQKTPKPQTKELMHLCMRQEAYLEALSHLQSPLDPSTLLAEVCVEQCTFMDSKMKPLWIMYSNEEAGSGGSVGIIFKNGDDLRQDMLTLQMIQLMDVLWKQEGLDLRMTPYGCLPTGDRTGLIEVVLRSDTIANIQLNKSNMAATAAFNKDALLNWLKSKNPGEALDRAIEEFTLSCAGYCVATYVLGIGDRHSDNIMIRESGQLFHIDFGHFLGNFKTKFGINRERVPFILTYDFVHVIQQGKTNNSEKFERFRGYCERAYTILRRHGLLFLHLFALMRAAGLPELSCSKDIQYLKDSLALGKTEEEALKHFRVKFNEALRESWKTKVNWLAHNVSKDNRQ

[4] = target: Serine/threonine-protein kinase 10 (Homo sapiens) (UniProt O94804); assay: Inhibition of LOK (unknown origin) at 1 uM by Ambit Kinomescan binding assay relative to control; values are per cent of control
[5] = test system: Mast/stem cell growth factor receptor Kit (Homo sapiens), P10721 [V559D,V654A]; assay: Inhibition of KIT V559D/V654A mutant (unknown origin) at 1 uM by Ambit Kinomescan binding assay relative to control; values are per cent of control
[6] = target: Tyrosine-protein kinase SYK (Homo sapiens) (UniProt P43405); assay: Inhibition of SYK (unknown origin) at 1 uM by Ambit Kinomescan binding assay relative to control

Chain of Mast/stem cell growth factor receptor Kit (Homo sapiens), P10721 [V559D,V654A] (P10721 whole entry V559D/V654A): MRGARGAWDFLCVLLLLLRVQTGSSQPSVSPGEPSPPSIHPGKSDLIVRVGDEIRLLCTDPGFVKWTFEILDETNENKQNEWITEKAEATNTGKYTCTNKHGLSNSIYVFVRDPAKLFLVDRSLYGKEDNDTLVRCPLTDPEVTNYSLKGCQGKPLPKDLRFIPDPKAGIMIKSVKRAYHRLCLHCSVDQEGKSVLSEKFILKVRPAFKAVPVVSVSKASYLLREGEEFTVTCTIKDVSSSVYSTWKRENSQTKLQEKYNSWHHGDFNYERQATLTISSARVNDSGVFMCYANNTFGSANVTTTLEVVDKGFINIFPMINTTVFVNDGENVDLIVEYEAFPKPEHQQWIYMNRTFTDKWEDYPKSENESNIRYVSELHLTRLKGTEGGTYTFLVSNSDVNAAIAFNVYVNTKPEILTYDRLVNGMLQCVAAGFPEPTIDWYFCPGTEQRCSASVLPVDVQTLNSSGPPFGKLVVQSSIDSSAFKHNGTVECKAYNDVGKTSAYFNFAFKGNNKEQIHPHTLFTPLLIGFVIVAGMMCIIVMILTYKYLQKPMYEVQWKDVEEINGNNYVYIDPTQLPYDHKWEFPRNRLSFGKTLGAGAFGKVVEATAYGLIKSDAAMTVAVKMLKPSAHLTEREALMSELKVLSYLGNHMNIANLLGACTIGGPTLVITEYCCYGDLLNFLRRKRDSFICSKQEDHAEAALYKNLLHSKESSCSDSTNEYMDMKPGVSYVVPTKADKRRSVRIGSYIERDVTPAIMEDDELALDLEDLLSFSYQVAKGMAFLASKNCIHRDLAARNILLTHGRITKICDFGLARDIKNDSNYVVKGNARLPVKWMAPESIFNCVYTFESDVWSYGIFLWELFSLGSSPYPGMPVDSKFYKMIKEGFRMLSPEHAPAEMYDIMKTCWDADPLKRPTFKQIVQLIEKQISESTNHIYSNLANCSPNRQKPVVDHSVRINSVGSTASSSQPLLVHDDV
Chain of Mitogen-activated protein kinase kinase kinase 4 (Homo sapiens) (Q9Y6R4 whole entry, canonical isoform): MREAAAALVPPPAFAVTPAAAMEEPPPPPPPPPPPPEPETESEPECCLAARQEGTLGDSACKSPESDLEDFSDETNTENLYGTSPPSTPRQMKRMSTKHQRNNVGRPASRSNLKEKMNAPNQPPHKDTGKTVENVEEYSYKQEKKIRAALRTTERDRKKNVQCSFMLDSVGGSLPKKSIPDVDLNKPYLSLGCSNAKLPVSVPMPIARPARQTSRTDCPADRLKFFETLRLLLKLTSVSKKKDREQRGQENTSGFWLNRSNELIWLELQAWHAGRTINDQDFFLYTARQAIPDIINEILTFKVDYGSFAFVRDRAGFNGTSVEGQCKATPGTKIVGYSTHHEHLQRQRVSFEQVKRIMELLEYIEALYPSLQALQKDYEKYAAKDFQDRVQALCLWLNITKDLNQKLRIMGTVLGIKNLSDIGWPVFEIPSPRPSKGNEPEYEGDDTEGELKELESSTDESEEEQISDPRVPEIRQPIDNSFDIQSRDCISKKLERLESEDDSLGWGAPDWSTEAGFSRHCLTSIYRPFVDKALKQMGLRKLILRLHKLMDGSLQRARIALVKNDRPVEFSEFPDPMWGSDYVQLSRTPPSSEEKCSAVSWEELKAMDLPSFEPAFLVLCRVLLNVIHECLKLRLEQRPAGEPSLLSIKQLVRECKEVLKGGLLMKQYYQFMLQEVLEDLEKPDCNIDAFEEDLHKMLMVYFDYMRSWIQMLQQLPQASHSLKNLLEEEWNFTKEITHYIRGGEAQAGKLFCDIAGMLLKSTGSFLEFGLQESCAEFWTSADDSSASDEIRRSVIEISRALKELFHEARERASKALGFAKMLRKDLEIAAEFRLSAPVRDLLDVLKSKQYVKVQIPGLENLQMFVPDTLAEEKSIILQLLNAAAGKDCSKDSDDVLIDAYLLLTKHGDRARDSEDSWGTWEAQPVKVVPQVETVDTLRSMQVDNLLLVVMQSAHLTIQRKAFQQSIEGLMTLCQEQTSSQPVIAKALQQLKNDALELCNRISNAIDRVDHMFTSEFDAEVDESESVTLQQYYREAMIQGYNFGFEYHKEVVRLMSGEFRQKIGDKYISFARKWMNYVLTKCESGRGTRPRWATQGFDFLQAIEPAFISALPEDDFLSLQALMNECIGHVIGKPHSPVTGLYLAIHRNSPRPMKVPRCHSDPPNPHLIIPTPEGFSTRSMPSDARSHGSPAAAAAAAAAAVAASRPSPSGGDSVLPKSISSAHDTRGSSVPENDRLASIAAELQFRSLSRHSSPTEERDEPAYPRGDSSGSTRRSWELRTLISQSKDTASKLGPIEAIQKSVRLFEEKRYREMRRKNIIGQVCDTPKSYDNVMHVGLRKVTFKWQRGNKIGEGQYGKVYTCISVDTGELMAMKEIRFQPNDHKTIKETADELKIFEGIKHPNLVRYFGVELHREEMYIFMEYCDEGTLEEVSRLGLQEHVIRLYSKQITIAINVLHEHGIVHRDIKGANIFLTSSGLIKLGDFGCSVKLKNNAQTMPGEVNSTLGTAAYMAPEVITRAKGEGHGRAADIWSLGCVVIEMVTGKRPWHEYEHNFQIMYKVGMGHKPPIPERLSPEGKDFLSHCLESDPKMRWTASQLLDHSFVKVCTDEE
Chain of Serine/threonine-protein kinase 10 (Homo sapiens) (O94804 whole entry, looked up): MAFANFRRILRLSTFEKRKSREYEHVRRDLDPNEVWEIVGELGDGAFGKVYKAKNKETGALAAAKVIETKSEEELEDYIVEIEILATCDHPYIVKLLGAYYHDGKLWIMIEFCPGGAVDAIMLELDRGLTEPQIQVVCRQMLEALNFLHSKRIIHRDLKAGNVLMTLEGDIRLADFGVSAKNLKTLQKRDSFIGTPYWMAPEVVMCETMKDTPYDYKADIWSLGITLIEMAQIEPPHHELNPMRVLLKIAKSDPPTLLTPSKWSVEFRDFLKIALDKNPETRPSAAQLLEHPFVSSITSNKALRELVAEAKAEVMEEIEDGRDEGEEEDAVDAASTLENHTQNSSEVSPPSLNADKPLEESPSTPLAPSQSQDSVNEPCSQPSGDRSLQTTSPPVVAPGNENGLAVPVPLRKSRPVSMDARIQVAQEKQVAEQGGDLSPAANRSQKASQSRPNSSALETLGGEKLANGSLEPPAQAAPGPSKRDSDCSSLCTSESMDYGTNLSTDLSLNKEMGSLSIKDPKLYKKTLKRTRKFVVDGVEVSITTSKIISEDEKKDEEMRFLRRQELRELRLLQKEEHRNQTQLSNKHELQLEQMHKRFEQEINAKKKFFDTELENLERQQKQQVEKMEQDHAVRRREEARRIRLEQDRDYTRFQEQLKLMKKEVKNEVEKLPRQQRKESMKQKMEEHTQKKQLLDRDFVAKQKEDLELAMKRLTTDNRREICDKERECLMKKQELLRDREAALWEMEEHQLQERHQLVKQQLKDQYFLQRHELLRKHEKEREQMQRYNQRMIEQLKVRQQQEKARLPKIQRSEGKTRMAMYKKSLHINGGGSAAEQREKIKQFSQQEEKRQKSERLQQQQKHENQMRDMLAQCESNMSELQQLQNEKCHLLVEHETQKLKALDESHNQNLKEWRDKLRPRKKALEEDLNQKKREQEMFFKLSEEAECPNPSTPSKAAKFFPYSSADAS

SMILES | inhibition [1] | inhibition [2] | inhibition [3] | percent of control [4] | residual activity [5] | inhibition [6]
CCN1CCN(Cc2ccc(NC(=O)c3ccc(C)c(Oc4ccnc5[nH]ccc45)c3)cc2C(F)(F)F)CC1 | -9.3% | -2.3% | inactive |  |  | 
CCN1CCN(Cc2ccc(NC(=O)c3ccc(C)c(/C=C/c4cnc5[nH]ccc5c4OC)c3)cc2C(F)(F)F)CC1 |  |  |  | 0% | 7.1% | 18%

Source: ChEMBL document CHEMBL5696442, “Discovery of type II inhibitors of TGFβ-activated kinase 1 (TAK1) and mitogen-activated protein kinase kinase kinase kinase 2 (MAP4K2)” (J Med Chem, 2015)
